# Experimental data taken from publication PMC8230051, “Molecular Cloning and Functional Characterization of Three 5-HT Receptor Genes (HTR1B, HTR1E, and HTR1F) in Chickens” (Genes, 2021).
# Assays:
# [1] = molecular target: human HTR1E receptor; design: method as in PMID 14744596; conditions: read-out: EC50, stimulation of [35S]GTPγS; cited from earlier work
# [2] = molecular target: T1, chicken HTR1E (Gallus gallus, UniProt E1BS44); experiment: pGL3-CRE-luciferase reporter assay, inhibition of forskolin-stimulated cAMP/PKA signaling; assay type: cell-based
# Source text: (§1) According to our previously established methods, chicken HTR1B or HTR1E or HTR1F was transiently expressed in human embryonic kidney 293 (HEK293) cells and treated by 5-HT (10^−11 to 10^−7 M) or HTR1 agonists (CP94253, BRL54443 or LY344864, 10^−11 to 10^−5 M) for six hours. The receptor-activated signaling pathways were then examined by pGL3-CRE-luciferase (capable of monitoring cAMP/PKA signaling pathways) and pGL4-SRE-luciferase reporter systems (capable of monitoring MAPK/ERK signaling pathways). Luminescence was measured by a multimode microplate reader (TriStar LB941, EG&G Berthold, Bad Wildbad, Germany) according to the manufacturer’s instruction.
# (§2) Luciferase reporter assays were performed to determine the signaling properties of HTR1B, HTR1E, and HTR1F using different ligands, including 5-HT (natural ligand), CP94253 (a selective HTR1B agonist), BRL54443 (a selective HTR1E agonist) and LY344864 (a selective HTR1F agonist) respectively. […] Using a pGL3-CRE-luciferase reporter system, the receptor-mediated inhibition of the cAMP/PKA signaling pathway was subsequently monitored as in our previous studies.
# (§3) HEK293 cells were transiently co-transfected with HTR1 expression plasmid and pGL3-CRE/pGL4-SRE luciferase reporter construct, and subjected to ligand treatment for 6 h before measurement. Effects of 5-HT (A), CP94253 (B), BRL54443 (C), and LY344864 (D) (10^−11–10^−7 M, 6 h) on forskolin (2 μM)-stimulated luciferase activity of HEK293 cells expressing chicken HTR1B, HTR1E, and HTR1F, monitored by a pGL3-CRE luciferase reporter system. Effects of 5-HT (E), CP94253 (F), BRL54443 (G), and LY344864 (H) (10^−11–10^−5 M, 6 h) on luciferase activity of HEK293 cells expressing chicken HTR1B, HTR1E, and HTR1F, monitored by a pGL4-SRE luciferase reporter system. HEK293 cells co-transfected with empty pcDNA3.1(+) and luciferase reporter construct were used as a control. Each data point represents the mean ± SEM of 3 replicates.
# [3] = molecular target: T2, chicken HTR1B (Gallus gallus, UniProt D3Y1H8); experiment: as above; assay type: cell-based; conditions: HEK293 cells expressing chicken HTR1B, inhibition of forskolin (2 μM)-stimulated luciferase activity, 6 h, read-out: EC50, cAMP/PKA signaling pathway, HTR1B
# Source text: as §1, §2, §3
# [4] = molecular target: T3, chicken HTR1F (Gallus gallus, UniProt A0A4P9IUX1); experiment: as above; assay type: cell-based
# Source text: as §1, §2, §3
# [5] = test system: cultured chicken pituitary cells; experiment: VIP- or forskolin-stimulated PRL secretion, Western blot; assay type: cell-based; conditions: 6 h; for effect on VIP-stimulated PRL secretion: VIP 5 nM; for effect on forskolin-stimulated PRL secretion: forskolin 2 μM
# Procedure: As described in the previous experiment, anterior pituitaries were collected from 3-week-old male or female chicks; then, digested by 0.25% trypsin at 37 °C for 30 min. The dispersed pituitary cells were then cultured at a density of 5 × 10^5 cells/well on Corning® CellBIND® 48-well plates (Corning, Lowell, MA, USA) with culture medium 199 (M199, Gibco, Grand Island, NY, USA) containing 10% FBS (Gibco) at 37 °C with 5% CO2. After 18 h of culture, the culture medium was removed, and cells were treated with 120 μL M-199 containing various concentration of 5-HT (0.1 μM) or CP94253 (10 μM) or BRL54443 (10 μM) or LY344864 (10 μM) in the presence of VIP (5 nM) or forskolin (FK, 2 μM). After 6 h of treatment, the culture medium was collected for measurement of PRL secretion, and then pituitary cells were lysed with 1 × passive lysis buffer (Promega) and lysates were collected to examine intracellular PRL and β-actin levels. The protein samples were electrophoresed and transferred to the membrane, and then the standard procedures were used for protein detection. The PRL rabbit polyclonal antibody (1:500) against recombinant full-length chicken PRL were prepared in our laboratory and used to detect the PRL protein levels in our previous study.
# Relative PRL levels were calculated as the ratio to the intracellular β-actin level and then expressed as a percentage of control or VIP or forskolin treatment groups. The relative mRNA level of each gene was first calculated as the ratio to that of β-actin and then expressed as fold change compared with the respective control. GraphPad Prism 7 (GraphPad Software Inc, San Diego, California, USA) was used for statistical analysis. Data were analyzed by the unpaired Student’s t-test (for two groups) or by one-way ANOVA, followed by the Dunnett’s test (for comparing treatment groups with control). Data are presented as mean ± SEM.
# Figure 8 Western blot showing the effects of various selective agonists ((A): 5-HT; (B): CP94253; (C): BRL54443; (D): LY344864) on VIP (5 nM) or forskolin (FK, 2 μM)-stimulated cPRL secretion in cultured chicken pituitary cells. sPRL represents secretory PRL, and iPRL represents intracellular PRL. Protein levels were semi-quantified by densitometry, β-actin was used as an internal control. For the sPRL analysis, the 5 nM VIP or 2 μM FK treated group was regarded as 100%, while for the iPRL analysis, the control group (without any drug treatment) was regarded as 100%. Different letters indicate statistical difference between two groups (p ≤ 0.01), as determined by one-way ANOVA and a Tukey’s test. Each data point represents the mean ± SEM of three replicates (n = 3).
# [6] = molecular target: T1, chicken HTR1E; experiment: Western blot of CREB and ERK1/2 phosphorylation in transfected HEK293 cells; assay type: cell-based; conditions: HEK293 cells expressing HTR1E, 10 min
# Procedure: (§4) HEK293 cells transfected with HTR1B, HTR1E or HTR1F expression plasmid were cultured on a 24-well plate at 37 °C and then treated with 5-HT for 10 min. Then, cells were lysed with 1 × passive lysis buffer (Promega). The phosphorylated ERK1/2 (pERK1/2) and CREB (pCREB) levels in cell lysates were examined by Western blot, as described in our previous studies.
# (§5) In addition, Western blots were performed to elucidate these signaling properties of chicken HTR1B, HTR1E, and HTR1F. […] These findings further supported the functional coupling of the three receptors to the cAMP/PKA and MAPK/ERK signaling cascade, in agreement with previous luciferase assay results.
# (§6) Figure 5 Western blot showing 5-HT treatment (100 nM, 10min) can inhibit the forskolin (FK) (2 μM)-stimulated phosphorylation levels of CREB (p-CREB) in HEK293 cells expressing chicken HTR1B, HTR1E, and HTR1F (A), and 5-HT treatment (10 μM, 10 min) can enhance phosphorylation of ERK1/2 (p-ERK1/2) in HEK293 cells expressing chicken HTR1B, HTR1E, and HTR1F (B).
# [7] = molecular target: T2, chicken HTR1B; experiment: as above; assay type: cell-based; conditions: HEK293 cells expressing HTR1B, 10 min
# Procedure: as §4, §5, §6
# [8] = molecular target: T3, chicken HTR1F; experiment: as above; assay type: cell-based; conditions: HEK293 cells expressing HTR1F, 10 min
# Procedure: as §4, §5, §6
# [9] = molecular target: T1, chicken HTR1E; experiment: pGL4-SRE-luciferase reporter assay, MAPK/ERK signaling; assay type: cell-based
# Source text: as §1, §3
# [10] = molecular target: T2, chicken HTR1B; experiment: as above; assay type: cell-based; conditions: HEK293 cells expressing chicken HTR1B, stimulation of luciferase activity, 6 h, table values marked a roughly estimated, read-out: EC50, MAPK/ERK signaling pathway, HTR1B
# Source text: as §1, §3
# [11] = molecular target: T3, chicken HTR1F; experiment: as above; assay type: cell-based
# Source text: as §1, §3
# [12] = molecular target: guinea pig HTR1E receptor; design: method as in PMID 14744596; conditions: read-out: EC50, stimulation of [35S]GTPγS; cited from earlier work
# [13] = test system: HTR1B; design: method as in PMID 10936173; conditions: human HTR1B stimulated with 5-HT; read-out: EC50, ERK activation; cited from earlier work
# [14] = test system: hens; design: method as in doi:10.1016/0378-4320(78)90011-8; conditions: injection eight hours before the pre-ovulation period; cited from earlier work
# [15] = test system: HTR1F; design: method as in PMID 17715266; conditions: in mammals; cited from earlier work
# T2 sequence (D3Y1H8 1-379): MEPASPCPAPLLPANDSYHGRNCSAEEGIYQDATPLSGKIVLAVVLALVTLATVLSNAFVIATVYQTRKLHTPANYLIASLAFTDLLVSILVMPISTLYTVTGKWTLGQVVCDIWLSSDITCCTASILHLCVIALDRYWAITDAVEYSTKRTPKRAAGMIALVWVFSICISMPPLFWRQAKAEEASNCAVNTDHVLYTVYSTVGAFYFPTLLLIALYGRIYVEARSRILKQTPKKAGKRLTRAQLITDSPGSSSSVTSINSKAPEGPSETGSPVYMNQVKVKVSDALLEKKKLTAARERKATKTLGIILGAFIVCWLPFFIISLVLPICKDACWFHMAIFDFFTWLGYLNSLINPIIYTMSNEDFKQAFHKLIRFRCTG
# T1 sequence (E1BS44 1-371): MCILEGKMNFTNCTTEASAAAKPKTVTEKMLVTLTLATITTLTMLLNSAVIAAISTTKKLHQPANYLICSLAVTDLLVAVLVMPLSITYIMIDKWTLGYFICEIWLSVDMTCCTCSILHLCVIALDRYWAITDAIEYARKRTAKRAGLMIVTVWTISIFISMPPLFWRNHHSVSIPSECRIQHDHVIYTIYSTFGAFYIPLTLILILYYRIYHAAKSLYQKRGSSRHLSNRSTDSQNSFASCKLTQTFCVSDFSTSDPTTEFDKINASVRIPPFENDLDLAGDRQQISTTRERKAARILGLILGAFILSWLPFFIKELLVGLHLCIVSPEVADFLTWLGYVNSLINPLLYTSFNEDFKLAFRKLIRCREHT
# T3 sequence (A0A4P9IUX1 entry or part of it): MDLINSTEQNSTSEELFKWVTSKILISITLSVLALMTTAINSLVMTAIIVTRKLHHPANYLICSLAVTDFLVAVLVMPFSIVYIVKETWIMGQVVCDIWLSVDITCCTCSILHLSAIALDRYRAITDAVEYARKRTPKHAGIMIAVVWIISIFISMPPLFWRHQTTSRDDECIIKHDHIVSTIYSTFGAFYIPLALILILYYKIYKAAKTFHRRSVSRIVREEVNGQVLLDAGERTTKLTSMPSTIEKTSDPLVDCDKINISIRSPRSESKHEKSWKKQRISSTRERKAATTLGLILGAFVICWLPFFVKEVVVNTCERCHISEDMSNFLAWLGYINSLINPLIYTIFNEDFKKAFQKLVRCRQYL
smiles,measurement,setting,value
"NCCc1c[nH]c2ccc(O)cc12 [5-HT, 5-hydroxytryptamine]",EC50,[1],[…]
same,EC50,[2],9.3 nM
same,EC50,[3],8 nM
same,EC50,[4],5.7 nM
same,effect on VIP-stimulated PRL secretion,[5]; 0.1 μM,showed no significant effect on VIP-stimulated PRL secretion
same,effect on forskolin-stimulated PRL secretion,[5]; 0.1 μM,showed no significant effect on PRL release
same,effect on forskolin-stimulated CREB phosphorylation,"[6]; 100 nM, forskolin 2 μM",could inhibit forskolin (2 μM)-stimulated CREB phosphorylation
same,effect on ERK1/2 phosphorylation,[6]; 10 μM,could enhance ERK1/2 (44/42 kDa) phosphorylation
same,effect on forskolin-stimulated CREB phosphorylation,"[7]; 100 nM, forskolin 2 μM",could inhibit forskolin (2 μM)-stimulated CREB phosphorylation
same,effect on ERK1/2 phosphorylation,[7]; 10 μM,could enhance ERK1/2 (44/42 kDa) phosphorylation
same,effect on forskolin-stimulated CREB phosphorylation,"[8]; 100 nM, forskolin 2 μM",could inhibit forskolin (2 μM)-stimulated CREB phosphorylation
same,effect on ERK1/2 phosphorylation,[8]; 10 μM,could enhance ERK1/2 (44/42 kDa) phosphorylation
same,EC50,[9],> 100 nM
same,EC50,[10],> 800 nM
same,EC50,[11],> 500 nM
same,EC50,[12],13.6 ± 1.92 nM
same,ovulation failure,[14],90 % of hens
CN(C)[C@@H]1CCc2[nH]c3ccc(NC(=O)c4ccc(F)cc4)cc3c2C1 [LY344864],EC50,"[4]; HEK293 cells expressing chicken HTR1F, pGL3-CRE-luciferase, inhibition of forskolin (2 μM)-stimulated luciferase activity, 6 h, read-out: EC50, cAMP/PKA signaling pathway, HTR1F",1.8 nM
same,effect on VIP-stimulated PRL secretion,[5]; 10 μM,could significantly inhibit VIP-stimulated PRL secretion
same,effect on forskolin-stimulated PRL secretion,[5]; 10 μM,could significantly inhibit PRL secretion
same,"affinity for HTR1F relative to HTR1A, HTR1B, HTR1D, and HTR1E",[15],~ 100 fold
same,pKd for HTR1F,[15],8.2
same,EC50,"[11]; HEK293 cells expressing chicken HTR1F, pGL4-SRE-luciferase, stimulation of luciferase activity, 6 h, table values marked a roughly estimated, read-out: EC50, MAPK/ERK signaling pathway, HTR1F",> 200 nM
CCCOc1ccc2[nH]cc(C3=CCNCC3)c2n1 [CP94253],EC50,[3],4 nM
same,effect on VIP-stimulated PRL secretion,[5]; 10 μM,showed no significant effect on VIP-stimulated PRL secretion
same,effect on forskolin-stimulated PRL secretion,[5]; 10 μM,showed no significant effect on PRL release
same,EC50,[10],> 200 nM
"CN1CCC(c2c[nH]c3ccc(O)cc23)CC1 [BRL54443, 3-(-1-methylpiperidin-4-yl)-1H-indol-5-ol]",EC50,[2],2.4 nM
same,effect on VIP-stimulated PRL secretion,[5]; 10 μM,showed no significant effect on VIP-stimulated PRL secretion
same,effect on forskolin-stimulated PRL secretion,[5]; 10 μM,showed no significant effect on PRL release
same,EC50,[9],28.8 nM
